Test results taken from patent US9937250B2, “Immunogenic tumor associated stromal cell antigen peptides and methods of their use” (University of Pittsburgh—Of the Commonwealth System of …, priority 2011, dated 2018).

What was measured:
[1] = test system: tumor-associated pericytes and VEC; assay: Day 60 splenic CD8+ T cell IFN-γ response in mice cured of B16 by vaccination; assay type: cell-based, HHD mice; conditions: 60 days after tumor inoculation, IFN-γ ELISA (FIG. 12)
Excerpt: HHD mice bearing established day seven B16 melanomas were therapeutically vaccinated with peptides derived from the TASA DLK1 or RGS5 as described in FIG. 11B. Tumors regressed to a non-detectable level over the next two weeks. Sixty days after tumor inoculation, CD8^+ T cells were MACS-isolated from the spleens of these animals and evaluated for IFN-γ production (by ELISA) in response to pericytes and VEC (flow-sorted from day 19 untreated B16 tumors or tumor-uninvolved kidneys of B16-bearing HHD mice), as well as, HLA-A2^+ T2 cells (control or pulsed with the indicated peptides). *p<0.05 versus anti-class I mAb blockade (when evaluating responses against pericytes, VEC or B16 tumor cells) or T2 cells only (when evaluating anti-peptide responses). […]
Evaluation of Specific CD8^+ T Cell Responses in HHD Mice. MACS (Miltenyi Biotec) CD8^+ splenocytes were harvested (from 3 mice/group) 7 days after the second round of DC-based vaccination (i.e. day 21 after tumor inoculation) and analyzed for reactivity against unpulsed T2 cells, TBVA peptide-pulsed T2 cells, or day 19 (flow-sorted) B16-derived PDGFRβ^+CD31^negH-2K^b(neg) pericytes or PDGFRβ^negCD31^+H-2K^b(neg) VEC isolated as previously described (Zhao et al., Mol Ther., 19:805-814, 2011). […] After 48 h, supernatants were analyzed for mIFN-γ content by specific ELISA (BD-Biosciences; lower detection limit=31.3 pg/ml). […]

[2] = test system: MC38 tumor microenvironment; assay: Fluorescence imaging of MC38 tumor sections after prophylactic vaccination; assay type: in vivo, HHD mice; conditions: day 14 tumors; p<0.05 vs. untreated or DC.IL12/no peptide
Excerpt: Day 14 MC38 tumors were harvested from HHD mice that had been vaccinated as outlined in FIG. 9B with the indicated peptides (or control PBS or DC.IL12 alone=No peptide). In FIG. 10A, six-micron tissue sections were co-stained with anti-CD8 (green) and anti-NG2 (red) antibodies and imaged by fluorescence microscopy. Blue signal=nuclear counterstain using 4′,6-diamidino-2-phenylindole (DAPI). FIG. 10B provides a summary of the mean+/−SD number of CD8^+ cells per high-power field (HPF) in MC38 tumors isolated from control or vaccinated mice as depicted in FIG. 10A. In FIG. 10C, tissue sections were co-stained with anti-CD31 (green) and anti-NG2 (red) antibodies and imaged by fluorescence microscopy. Blue signal=nuclear counterstain using DAPI. In FIG. 10D, the mean+/−SD number of CD31^+ vessels per HPF of MC38 tumors in control or vaccinated mice are summarized Representative data is depicted from 1 of 3 independent experiments performed. *p<0.05 versus DC only or untreated control mice.
Fluorescence Imaging of Tumor Sections. Tumor tissue samples were prepared and 6 micron sections prepared as previously reported (Komita et al., Cancer Res., 68:8076-8084, 2008). The following Abs were used: (for T cell analyses), rabbit anti-mouse NG2 (Millipore, Bedford, Mass.) and alexa488-conjugated anti-CD4 or -CD8β antibodies or matching isotype controls (all from BD-Biosciences); (for vascular analyses), rat anti-mouse CD31 (BD-Biosciences) and rabbit anti-mouse NG2 (Millipore) Abs; (for TBVA), rat anti-mouse CD31 (BD-Biosciences) and guinea pig anti-mouse NG2 Abs, along with anti-TBVA as described in Example 1. Imaging was performed using an Olympus Fluoview 500 Confocal microscope (Olympus America, Center Valley, Pa.).
Protective vaccines incorporating TBVA peptides promote enhanced infiltration of the TME by CD8^+ T cells in association with an inhibition of tumor vascularity. MC38 tumor lesions from all cohorts of animals with evidence of disease on day 14 (post-tumor inoculation) were isolated and immunofluorescence microscopy on tumor sections was performed. […] In marked contrast, CD4^+ T cell infiltration in the TME was sparse and the data were indistinguishable when comparing control vs. vaccinated mice (FIG. 17). […] Correlative analyses indicated an association between the anti-tumor efficacy of vaccines and their ability to promote CD8^+ T cell infiltration and reduced vascularity in the TME (FIG. 16).

Substance	Tc1 recognition of tumor pericytes/VEC by splenic CD8+ T cells of cured mice [1]	Suppression in CD31+ vessel counts in the MC38 TME [2]
LAALPHSCL (listed as Homo sapiens)	clear Tc1 recognition of tumor (but not tumor-uninvolved kidney) pericytes	
RGS5: RGS5-derived peptide 5-13 pulsed onto DC or DC.IL12 (LAALPHSCL; listed as Homo sapiens)		greatest degree of suppression in CD31^+ vessel counts
TEM1: TEM1-derived peptide 691-700 pulsed onto DC or DC.IL12 (LLVPTCVFLV; listed as Homo sapiens)		greatest degree of suppression in CD31^+ vessel counts
EphA2: EphA2-derived peptide 883-891 pulsed onto DC or DC.IL12 (TLADFDPRV; listed as Homo sapiens)		greatest degree of suppression in CD31^+ vessel counts
